Assay results from PMC12176268, “Structural Features and Photophysical and Antiproliferative Properties of Me2N‑pbt-Cycloplatinated Complexes with Picolinate Ligands” (Inorganic Chemistry, 2025).
Read-outs that look alike come from different tables or passages of the source.

Key:
[1] = tested on: CT-DNA; experiment: Interaction with CT-DNA by circular dichroism; format: binding, calf; details: 50 μM CT-DNA, 50 μM cisplatin, 37 °C, 24 h in the dark (positive control)
Procedure: Platinum(II) complexes, such as cisplatin, presenting exchangeable ligands are well known to interact with puric bases of DNA, leading to the formation of intra- and interstrand cross-links and in turn to transcription inhibition, cell cycle arrest, and ultimately cell death. Based on the reactivity in the cell culture medium, the interaction of complexes 1–4 and cisplatin with CT-DNA was investigated by circular dichroism (CD) spectroscopy after incubation at 37 °C for 24 h in the dark or for 4 h incubation and 5 min irradiation at 450 nm, followed by 20 h incubation, following a reported protocol. The CD spectrum of CT-DNA presents a positive peak at 280 nm, assigned to base stacking, and a negative peak at 245 nm, assigned to helicity.
A stock solution of calf thymus DNA (CT-DNA) was prepared in 5 mM TRIS·HCl, and 50 mM NaCl (pH 7.4). The concentration of nucleotides was assayed at 260 nm using ε = 6600 M^–1.cm^–1 (c = 3.38 mM). […] Circular dichroism spectra (238–340 nm, 5 scans) were recorded in a 1 cm path length cell on a J-815 CD spectrometer (JASCO) at 20 °C with 0.1 nm data pitch, 50 nm/min scan speed, and 1 nm bandwidth.

[2] = tested on: MDA-MB-231; design: method as in earlier work; details: 72 h, dark; footnote b: values taken from ref (number not given); cited from earlier work
[3] = tested on: A549; design: method as in earlier work; details: 72 h, dark; footnote b: values taken from ref (number not given); cited from earlier work
[4] = tested on: MCF-10A; design: method as in earlier work; details: 72 h, dark; footnote b: values taken from ref (number not given); cited from earlier work
[5] = tested on: MDA-MB-231; experiment: MTT cell viability assay on MDA-MB-231 cells, dark and 450 nm irradiation; format: cell-based, human; details: for EC50: MTT
Source text: (§1) (C∧N) cyclometalated Pt(II) complexes have been previously reported to have strong antiproliferative activities when associated with phenanthroline-based, diphosphine, acyclic diamino carbenes, or picolinate ligands. In particular, (Me2N-pbt)-cyclometalated platinum complexes have been previously reported by some of us to have antiproliferative properties in the micromolar range on a panel of cancer cell lines, prompting us to investigate the anticancer properties of complexes 1–4 in dark conditions and, considering their high quantum yield (ϕΔ) of ^1O2 generation, under irradiation conditions. Due to the poor solubility of the complexes in an aqueous environment, complexes 1–4 were first dissolved in DMSO and diluted in the culture media to reach a final concentration of 1% DMSO when incubated with the cells. All complexes were screened against the so-called “triple-negative” breast cancer cell line MDA-MB-231, lung adenocarcinoma cell line A549, and the noncancerous breast cell line MCF-10A for 72 h in dark conditions and under 5 min irradiation at 450 nm (see Experimental Section for details). The irradiation time was kept short to prevent light-induced toxicity of the energetic wavelength observed at longer irradiation times (data not shown). The measurement of the effective concentration at 50% (EC50) was carried out using the classical MTT assay, and the data are provided in Table .
(§2) In dark conditions, we could notice a strong influence of substituents on the picolinate ligands. […] This can be correlated with its poor stability in the culture medium mentioned above, which might reduce its cellular uptake. […] However, in dark conditions, no particular selectivity for cancer cells could be observed with similar activity measured against the noncancerous cell line MCF-10A. For the “light” experiments, the cells were preincubated with the complexes for 4 h in the dark, irradiated at 450 nm for 5 min, and then put back in the dark until 72 h. The photoactivity index (PI) values, defined as the ratio between the EC50 in dark conditions and the EC50 after irradiation for each cell line, are shown in Figure .
(§3) The human lung adenocarcinoma cell line A549 and human breast cancer cell line MDA-MB-231 were cultivated in DMEM (Dulbecco’s modified Eagle’s medium) containing GlutaMax I supplemented with 10% FBS at 37 °C in a humidified atmosphere and 5% CO2. The noncancerous cell line MCF-10A was maintained in DMEM:F12 (1:1) cell culture media, 5% heat-inactivated horse serum, supplemented with HEPES (20 mM), L-glutamine (2 mM), epidermal growth factor (20 ng/mL), hydrocortisone (500 ng/mL), cholera toxin (100 ng/mL), and insulin (10 μg/mL). Cell viability was evaluated by using a colorimetric method based on the tetrazolium salt MTT [3-(4,5-dimethylthiazol-2-yl)-2,5-diphenyltetrazolium bromide], which is reduced by viable cells to yield purple formazan crystals. Cells were seeded in 96-well plates at a density of 40000 cells/mL (100 μL per well). Stock solutions were prepared in DMSO for complexes 1–4 and in water for cisplatin. […] For dark experiments, after overnight attachment, a dilution series of the compounds was added to the medium, and the cells were incubated for a further 72 h. For the irradiated experiments, after overnight attachment, a dilution series of the compounds was added to the medium, and the cells were preincubated for 4 h. The cells were then irradiated at 450 nm for 5 min with a Kessil Lamp (power: 3 mW/cm^2, 1.13 × 10^–8 Einstein/s at 20 cm distance between the light source and 96-well plate) and the incubation was continued until 72 h. After 72 h, the medium was removed and the cells were incubated with MTT solution in PBS (10 μL of 5 mg/mL) for 2–3 h. The formed purple formazan crystals were dissolved in 100 μL of DMSO by thorough shaking, and the absorbance at 580 nm was read using a microplate reader (FLUOstar OPTIMA, BMG Labtech). Each test was performed with at least 3 replicates and repeated at least 3 times. […]

[6] = tested on: A549; experiment: MTT cell viability assay on A549 cells, dark and 450 nm irradiation; format: cell-based, human; details: for EC50: MTT
Source text: as §1, §2, §3

[7] = tested on: MCF-10A; experiment: MTT cell viability assay on noncancerous MCF-10A cells, dark and 450 nm irradiation; format: cell-based, human; details: for EC50: MTT
Source text: as §1, §2, §3

[8] = Singlet oxygen generation, NIR emission at 1274 nm versus phenalenone; format: physicochemical; details: aerated acetonitrile 5 × 10^–5 M, 298 K, excitation 365 nm, reference phenalenone
Procedure: In aerated DMSO solutions, complexes 1–3 display a fluorescence band only at ca 510 nm, attributed to ^1LL′CT/^1ILCT, due to easy quenching of the phosphorescence by oxygen. However, upon prolonged photoexcitation at 365 nm, a continuous enhancement of the phosphorescence band is observed. Simply irradiating with a hand UV–vis lamp, the initial blue-green emission gradually shifts to the orange enhanced emission. The phosphorescence increases its maximum intensity in ca 15 1, 8 2, or 12 min 3 (Figures and S23). […] This relatively rare behavior has been previously observed by us , and other groups, and is explained by the occurrence of a local sensitization caused by energy transfer from the low-energy triplet to ^3O2-producing singlet ^1O2, which is able to selectively react with the solvent creating a free oxygen microenvironment that switches-on a phosphorescence band due to ^3ILCT at 580 nm. The strong sensitivity of the phosphorescence emission in these complexes encourages us to determine their efficiency as ^1O2 sensitizers. The singlet oxygen generation of complexes 1–3 was examined in acetonitrile solution (5 × 10^–5 M) using a near-infrared detector upon excitation at 365 nm, detecting the characteristic emission profile of ^1O2 at λem ∼ 1274 nm (Figure ).

[9] = Stability in serum-free DMEM containing 5% DMSO by UV–vis; format: physicochemical; details: DMEM with 5% DMSO, 25 μM, 37 °C; for stability in serum-free DMEM, UV–vis spectral changes, first 4 h: dark or with 5 min irradiation at 450 nm
Source text: The stability of complexes 1–4 was then investigated in more biologically relevant media by UV–visible spectroscopy. First, the stability of the complexes was studied in phosphate-buffered saline (PBS) containing 5% DMSO (Figure S30). […] Only a decrease in the intensity of all bands was observed, which could be attributed to partial aggregation and/or precipitation. […] The stability of complexes 1–4 was next studied in serum-free DMEM cell culture containing 5% DMSO (Figure S31). […] This final species seemed to have spectral features similar to those observed for complex 4 (Figure S31A). […] The similarity of the spectral features of the transformed species in all cases seemed to point to the formation of a common species upon incubation in DMEM, which we tentatively attribute to the decoordination of the picolinate ligands with a substituent-dependent kinetics; the COOH group favored the release of the picolinate ligand, while both NH2 and OH substituents seemed to slow down this process.
The UV–vis spectra of complexes 1–4 were recorded in PBS:DMSO (95/5) and serum-free DMEM:DMSO (95/5) at a concentration of 25 μM on a Cary 50 spectrophotometer (Varian).

[10] = Solubility (statements); format: physicochemical
[11] = tested on: A549; design: method as in not given; details: previously reported by the authors, ref not given, cited from earlier work
[12] = tested on: HeLa; design: method as in not given; details: previously reported by the authors, ref not given, cited from earlier work
[13] = 4 h preincubation, 5 min irradiation at 450 nm, then dark until 72 h, read-out: EC50 MDA-MB-231 light
[14] = 72 h incubation at 37 °C, dark, read-out: EC50 MDA-MB-231 dark
[15] = 4 h preincubation, 5 min irradiation at 450 nm, then dark until 72 h, read-out: EC50 A549 light
[16] = 72 h incubation at 37 °C, dark, read-out: EC50 A549 dark
[17] = 4 h preincubation, 5 min irradiation at 450 nm, then dark until 72 h, read-out: EC50 MCF-10A light
[18] = 72 h incubation at 37 °C, dark, read-out: EC50 MCF-10A dark

| Molecule | EC50 [5, 13] | EC50 [5, 14] | EC50 [6, 15] | EC50 [6, 16] | EC50 [7, 17] | EC50 [7, 18] | quantum yield (ϕΔ) of 1O2 [8] | stability in serum-free DMEM, UV–vis spectral changes, 24 h [9] | stability in serum-free DMEM, UV–vis spectral changes, first 4 h [9] | also measured |
| --- | --- | --- | --- | --- | --- | --- | --- | --- | --- | --- |
| N.N.[Cl][Pt][Cl] [Cisplatin] |  |  |  |  |  |  |  |  |  | modification of the CD spectrum of CT-DNA [1]: decrease of the band at 245 nm and an increase of the band at 280 nm; EC50 [2]: 20400 ± 3400 nM; EC50 [3]: 1700 ± 500 nM; EC50 [4]: 2900 ± 800 nM |
| [Pt(Me2N-pbt)(3-NH2-pic-κN,O)] [Complex 2] | 260 ± 50 nM | 800 ± 200 nM | 1000 ± 200 nM | 1900 ± 400 nM | 400 ± 100 nM | 700 ± 200 nM | 17.4% | spectral features of both complexes changed | no spectral changes |  |
| [Pt(Me2N-pbt)(4-COOH-pic-κN,O)] [Complex 4] | 15900 ± 3600 nM | 42400 ± 4200 nM | > 100000 nM | > 100000 nM | 15000 ± 900 nM | 21700 ± 4200 nM |  |  | quantitative transformation | photoactivity index (PI), EC50 dark / EC50 after irradiation, MDA-MB-231 ([5]; 5 min irradiation at 450 nm): very limited phototoxicity; photoactivity index (PI), EC50 dark / EC50 after irradiation, A549 ([6]; 5 min irradiation at 450 nm): very limited phototoxicity; photoactivity index (PI), EC50 dark / EC50 after irradiation, MCF-10A ([7]; 5 min irradiation at 450 nm): very limited phototoxicity; solubility [10]: only soluble in DMSO |
| [Pt(Me2N-pbt)(o-dpb)] |  |  |  |  |  |  |  |  |  | IC50 ([11]; 1 min of irradiation (396 nm), read-out: IC50 A549 upon irradiation): 830 nM; activity in the dark, A549 ([11]; dark): inactive; IC50 ([12]; 1 min of irradiation (396 nm), read-out: IC50 HeLa upon irradiation): 1500 nM; activity in the dark, HeLa ([12]; dark): inactive |
| [Pt(Me2N-pbt)(pic-κN,O)] [Complex 1] | 170 ± 50 nM | 500 ± 60 nM | 570 ± 30 nM | 1500 ± 100 nM | 300 ± 100 nM | 470 ± 50 nM | 13.6% | further evolved | first spectral modification |  |
